In US8716355B2, “Hydroxylated tolans and related compounds in the treatment of a cancer” (Kent State University, priority 2007, dated 2014):
Where “and” joins values, the source holds several entries; their conditions need not be identical. Identical values can stand only once. Like-named read-outs stand apart in the source and are kept apart here.

Experiments:
WiDR = test: MTT cytotoxicity, WiDR colon; type: cell-based; settings: Homo sapiens, 72 h, 3 Days, read-out: CD50 (μM) WiDR
Protocol: (§1) Cell killing was evaluated using the colorimetric MTT assay. The assay measures the formation of a colored product from a chromogenic precursor, the tetrazole 3-[4,5-dimethylthiazol-2-yl]-2,5 diphenyltetrazolium bromide (MTT). The yellow MTT is reduced to purple formazan in the mitochondria of living cells. A solubilization solution (typically dimethyl sulfoxide or sodium dodecyl sulfate in dilute hydrochloric acid) is added to dissolve the insoluble purple formazan product into a colored solution. The absorbance of this colored solution is quantified by measuring at a certain wavelength (usually between 500 and 600 nm) by a spectrophotometer. The amount of purple formazan product generated is proportional to the number of viable cells (Mosmann, T., 1983, J. Immunol. Meth. 65:55-63; Wilson, A. P., Cytotoxicity and Viability Assays. In: Animal Cell Culture: A Practical Approach, 3rd ed. (Masters, J R W, ed.) Oxford University Press: Oxford, Vol. 1, pp. 175-219. 2000). This MTT assay is used widely to assess the cytotoxicity and selectivity of compounds such as anti-cancer drugs. The assay is suitable for rapid toxicity characterization of a test agent such as a drug formulation. […] A lower CD50 indicates a greater cytotoxic activity (as a lower amount of the agent is needed to achieve a fixed level of cytotoxicity). […]

[1] = system: normal human fibroblasts (MHRF); test: MTT cytotoxicity, normal human fibroblasts; type: cell-based; settings: for CD50 against MHRF: MTT
Protocol: (§2) As a first step, the antitumor activity of the tolans was assessed against a panel of three cancer cells lines that produce solid tumors upon implantation into animals. DU145 is an androgen-independent prostate cancer cells. T24 is a transitional cell bladder carcinoma cell. MDAH2274 (“MDAH) is an endometroid ovarian adenocarcinoma cell. To assess the selectivity of this antitumor activity, the toxicity of the tolans to normal human fibroblasts (MHRF) was examined. Subsequently, studies with Tolan-3 (KST-201) were expanded to test its action on a wide range of tumor cell lines.
(§3) Cell killing was evaluated using the colorimetric MTT assay. The assay measures the formation of a colored product from a chromogenic precursor, the tetrazole 3-[4,5-dimethylthiazol-2-yl]-2,5 diphenyltetrazolium bromide (MTT). The yellow MTT is reduced to purple formazan in the mitochondria of living cells. A solubilization solution (typically dimethyl sulfoxide or sodium dodecyl sulfate in dilute hydrochloric acid) is added to dissolve the insoluble purple formazan product into a colored solution. The absorbance of this colored solution is quantified by measuring at a certain wavelength (usually between 500 and 600 nm) by a spectrophotometer. The amount of purple formazan product generated is proportional to the number of viable cells (Mosmann, T., 1983, J. Immunol. Meth. 65:55-63; Wilson, A. P., Cytotoxicity and Viability Assays. In: Animal Cell Culture: A Practical Approach, 3rd ed. (Masters, J R W, ed.) Oxford University Press: Oxford, Vol. 1, pp. 175-219. 2000). This MTT assay is used widely to assess the cytotoxicity and selectivity of compounds such as anti-cancer drugs. The assay is suitable for rapid toxicity characterization of a test agent such as a drug formulation. […] A lower CD50 indicates a greater cytotoxic activity (as a lower amount of the agent is needed to achieve a fixed level of cytotoxicity). Two agents can be compared by examining the fold-increase or decrease in their CD50 values.

MDAH2274 = test: MTT cytotoxicity, MDAH2274 ovarian cancer cells; type: cell-based, human
Protocol: (§4) As a first step, the antitumor activity of the tolans was assessed against a panel of three cancer cells lines that produce solid tumors upon implantation into animals. DU145 is an androgen-independent prostate cancer cells. T24 is a transitional cell bladder carcinoma cell. MDAH2274 (“MDAH) is an endometroid ovarian adenocarcinoma cell. To assess the selectivity of this antitumor activity, the toxicity of the tolans to normal human fibroblasts (MHRF) was examined.
as §3, with “The amount of purple formazan product generated is proportional to the number of viable cells (Mosmann, T., 1983, J. Immunol. Meth. 65:55-63; Wilson, A. P., Cytotoxicity and Viability Assays. In: Animal Cell Culture: A Practical Approach, 3rd ed. (Masters, J R W, ed.) Oxford University Press: Oxford, Vol. 1, pp. 175-219. 2000).” left out

SKMEL28 = test: MTT cytotoxicity, SKMEL28 melanoma; type: cell-based; settings: Homo sapiens, SK-MEL-28, 72 h; 3 Days; read-out: CD50 (μM) SKMEL28
Protocol: as §1

T24 = test: MTT cytotoxicity, T24 bladder cancer cells; type: cell-based, human
Protocol: as §4
as §3, with “The amount of purple formazan product generated is proportional to the number of viable cells (Mosmann, T., 1983, J. Immunol. Meth. 65:55-63; Wilson, A. P., Cytotoxicity and Viability Assays. In: Animal Cell Culture: A Practical Approach, 3rd ed. (Masters, J R W, ed.) Oxford University Press: Oxford, Vol. 1, pp. 175-219. 2000).” left out, “values. […]” for “values.”

DU145 = test: MTT cytotoxicity, DU145 prostate cancer cells; type: cell-based, human; settings: for IC50: MTT, read-out: CD50 against DU145
Protocol: as §2, §3

A375 = test: MTT cytotoxicity, A375 melanoma; type: cell-based; settings: Homo sapiens, A-375, 72 h; 3 Days; read-out: CD50 (μM) A375
Protocol: as §1

HSV-1 = HSV-1 replication in infected Vero cells (plaque assay); type: cell-based, Herpes Simplex Virus-Type 1; settings: for IC50: Human alphaherpesvirus 1, Vero, read-out: IC50, concentration at which 50% of HSV-1 replication was inhibited
Protocol: For this purpose HSV-1 replication at 24, 48 and 72 h was examined in the presence or absence of varying concentrations of the polyphenol.
The SI is the ratio of the CD50 divided by a selected inhibitory concentration (IC %).
Viral inhibition by Tolan-3 appeared to occur after viral entry into cells. […] Subsequently, the compound was removed and replaced with culture medium alone, and the incubated continued for 48 or 72 more hrs. In a second experiment, HSV-1 infected Vero cells were incubated with 350 μM Tolan-3 for 48 h. Thereafter, the Tolan-3 was removed and replaced by medium and the incubation continued for an additional 24 h. Viral titers were calculated by a standard plaque assay.

HCT116 = test: MTT cytotoxicity, HCT116 colon; type: cell-based; settings: Homo sapiens, HCT-116, 72 h; 3 Days; read-out: CD50 (μM) HCT116
Protocol: as §1

[2] = Homo sapiens, 24 h, MTT, 1 day incubation, read-out: CD50 against MDAH, compound tested individually
[3] = Homo sapiens, 48 h, MTT, 2 days incubation, read-out: CD50 against MDAH, compound tested individually
[4] = Homo sapiens, 72 h, MTT, 3 days incubation, read-out: CD50 against MDAH, compound tested individually
[5] = MTT, 1 day incubation, read-out: CD50 against MDAH, compound tested individually
[6] = MTT, 1 day incubation, read-out: CD50 against T24, compound tested individually
[7] = Homo sapiens, DU-145, 24 h, 1 day incubation
[8] = Homo sapiens, DU-145, 48 h, 2 days incubation
[9] = Homo sapiens, DU-145, 72 h, 3 days incubation

| Compound | IC50 (WiDR) [µM] | CD50 against MHRF ([1]; 2 days incubation) [µM] | CD50 against MHRF ([1]; 3 days incubation) | IC50 (MDAH2274; [2]) [µM] | IC50 (MDAH2274; [3]) [µM] | IC50 (MDAH2274; [4]) [µM] | IC50 (MDAH2274; [5]) [µM] | IC50 (SKMEL28) [µM] | IC50 (T24; [6]) | IC50 (DU145; [7]) [µM] | IC50 (DU145; [8]) [µM] | IC50 (DU145; [9]) [µM] | IC50 (DU145; 1 day incubation) [µM] | IC50 (A375) [µM] | IC50 (HSV-1) [µM] | IC50 (HCT116) [µM] | further results |
| --- | --- | --- | --- | --- | --- | --- | --- | --- | --- | --- | --- | --- | --- | --- | --- | --- | --- |
| Oc1ccc(C#Cc2ccc(O)cc2)cc1 [KST-201, 4,4′-dihydroxytolan] | 80 ± 0.9 | 194.1 ± 9.60 | 153 µM and 153.2 ± 4.40 µM and 153 ± 4.4 µM | 22 | 10.5 ± 2.7 | 3.1 | 21.5 ± 7.35 | 82 ± 10 | 83 µM and 82.6 µM | 57 | 16.8 ± 0.63 | 9.4 | 57.3 ± 0.81 | 4.6 ± 0.1 | 15.6 | 129 ± 4 | Fold less toxic to normal fibroblasts than resveratrol ([1]; Table 15 vs Table 14): 3.5 fold; Fold more potent in killing MDAH2274 cells vs. control MHRF fibroblasts (MDAH2274): 50 fold; IC50 (MDAH2274; Homo sapiens, 24 h, VC:KST-201 400:1, 1 day, read-out: CD50 (μM) of each Compound tested in combination, MDAH 2274): 1.16 µM; IC50 (MDAH2274; Homo sapiens, 48 h, VC:KST-201 400:1, 2 days, read-out: CD50 (μM) of each Compound tested in combination, MDAH 2274): 0.97 ± 0.02 µM; IC50 (MDAH2274; Homo sapiens, 72 h, VC:KST-201 400:1, 3 days, read-out: CD50 (μM) of each Compound tested in combination, MDAH 2274): 0.98 µM; IC50 (MDAH2274; MTT, 1 day incubation, listed as Hydroxytolan, read-out: CD50 against MDAH, compound tested individually): 21.5 ± 7.4 µM; IC50 (MDAH2274; MTT, 1 day incubation, listed as hydroxytolan, read-out: CD50 against MDAH, compound tested individually): 21.5 µM; Fold more toxic to MDAH 2274 ovarian cancer cells than resveratrol (MDAH2274; Table 15 vs Table 14): 4.7 fold; Increase of cytotoxic potency in the combination, MDAH 2274 (MDAH2274; VC:KST-201 400:1, 1 day): about 20 fold; Fold more potent in killing T24 cells vs. control MHRF fibroblasts (T24): 18 fold; IC50 (T24; Homo sapiens, T-24, 24 h, VC:KST-201 200:1, 1 day, read-out: CD50 (μM) of each Compound tested in combination, T24): 3.19 µM; IC50 (T24; Homo sapiens, T-24, 48 h, VC:KST-201 200:1, 2 days, read-out: CD50 (μM) of each Compound tested in combination, T24): 3.17 µM; IC50 (T24; Homo sapiens, T-24, 72 h, MTT, 3 days incubation, read-out: CD50 against T24): 8.5 µM; IC50 (T24; MTT, 2 days incubation, read-out: CD50 against T24, compound tested individually): 31.1 ± 0.81 µM; Fold more toxic to T24 bladder cancer cells than resveratrol (T24; Table 15 vs Table 14): 2.8 fold; Increase of cytotoxic potency when given together, T24 (T24; VC:KST-201 200:1): about 7 fold; Fold more potent against DU145 cells compared to control MHRF fibroblasts (DU145): 16 fold; Fold more toxic to DU145 prostate cancer cells than resveratrol (DU145; Table 15 vs Table 14): 3 fold; SI50 (selectivity index, CD50 divided by IC50) (HSV-1; 48 h post-infection): 6.8; Effect on HSV-1 viral replication in Vero cells (in words) (HSV-1; at CD50, 75% and 50% of CD50, 24, 48, 72 h): significant anti-HSV activity |
| Oc1ccc(/C=C/c2cc(O)cc(O)c2)cc1 [Resveratrol, 3,5,4′-trihydroxy-trans-stilbene, reference compound] | 142 ± 6.4 | 50.9 ± 0.6 | 44.3 ± 3.0 µM and 47 ± 6.0 µM | 37 | 23.1 ± 0.14 | 15 | 36.9 ± 2.45 | 69 ± 1.2 | 35.7 ± 1 µM | 92 | 58.2 ± 0.4 | 28 | 92.2 ± 2.9 | 19 ± 0.2 | 23.4 | 94 ± 0.1 | CD50 against MHRF ([1]; 1 day incubation): 154.8 ± 16.5 µM; CD50 against MHRF ([1]; 1 day incubation, listed as resveratrol): 155 µM; CD50 against MHRF ([1]; 3 days incubation, listed as resveratrol): 44 µM; IC50 (MDAH2274; MTT, 3 days incubation, read-out: CD50 against MDAH, compound tested individually): 14.6 ± 0.12 µM; IC50 (T24; Homo sapiens, T-24, 24 h, MTT, 1 day incubation, read-out: CD50 against T24, compound tested individually): 36 µM; IC50 (T24; Homo sapiens, T-24, 48 h, MTT, 2 days incubation, read-out: CD50 against T24, compound tested individually): 29.1 ± 0.05 µM; IC50 (T24; MTT, 3 days incubation, listed as resveratrol, read-out: CD50 against T24): 23 µM; IC50 (T24; MTT, 3 days incubation, read-out: CD50 against T24): 22.6 ± 0.25 µM; IC50 (DU145; 3 days incubation): 27.9 ± 0.65 µM |
